{"source": "patent US7563800B2", "about": "“Substituted pyrazolo[3,4-D]pyrimidines as p38 map kinase inhibitors” (Roche Palo Alto LLC, priority 2006, dated 2009)", "key": {"p38 MAP kinase": {"target": "T1, p38 MAP kinase (Homo sapiens, UniProt Q16539)", "T1 construct": "made in house; host or cells: E. coli (co-expressed with SEK-1 and MEKK)", "T1 sequence (Q16539 whole entry)": "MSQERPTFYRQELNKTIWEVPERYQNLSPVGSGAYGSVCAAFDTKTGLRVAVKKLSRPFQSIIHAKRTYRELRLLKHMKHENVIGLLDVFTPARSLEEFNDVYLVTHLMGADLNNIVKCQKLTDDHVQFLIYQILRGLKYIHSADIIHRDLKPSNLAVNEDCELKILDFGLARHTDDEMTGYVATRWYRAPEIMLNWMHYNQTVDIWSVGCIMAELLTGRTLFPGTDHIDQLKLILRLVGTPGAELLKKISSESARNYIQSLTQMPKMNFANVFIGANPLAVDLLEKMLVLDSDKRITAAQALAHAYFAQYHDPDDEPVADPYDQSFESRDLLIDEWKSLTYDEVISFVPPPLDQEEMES", "assay": "p38 (MAP) kinase in vitro assay", "format": "biochemical", "details": "transfer of γ-phosphate from γ-33P-ATP to Myelin Basic Protein; phosphorylated recombinant p38 MAP kinase", "description": "This example illustrates a p38 (MAP) kinase in vitro assay useful for evaluating the compounds of the invention.\nThe p38 MAP kinase inhibitory activity of compounds of this invention in vitro was determined by measuring the transfer of the γ-phosphate from γ-^33P-ATP by p-38 kinase to Myelin Basic Protein (MBP), using a minor modification of the method described in Ahn, et al., J. Biol. Chem. 266:4220-4227 (1991).\nThe phosphorylated form of the recombinant p38 MAP kinase was co-expressed with SEK-1 and MEKK in E. Coli (see, Khokhlatchev, et al., J. Biol. Chem. 272:11057-11062 (1997)) and then purified by affinity chromatography using a Nickel column.\nThe phosphorylated p38 MAP kinase was diluted in kinase buffer (20 mM 3-(N-morpholino)propanesulfonic acid, pH 7.2, 25 mM β-glycerol phosphate, 5 mM ethylene glycol-bis(beta-aminoethyl ether)-N,N,N′,N′-tetraacetic acid, 1 mM sodium ortho-vanadate, 1 mM dithiothreitol, 40 mM magnesium chloride). Test compound dissolved in DMSO or only DMSO (control) was added and the samples were incubated for 10 min at 30° C. The kinase reaction was initiated by the addition of a substrate cocktail containing MBP and γ-^33P-ATP. […] The phosphorylated MBP was then separated from the residual γ-^33P-ATP using a phosphocellulose membrane (Millipore, Bedfrod, Mass.) and quantitated using a scintillation counter (Packard, Meriden, Conn.)."}}}
{"smiles": "CC(C)Oc1n[nH]c2nc(Oc3ccc(F)cc3F)ncc12", "note": "[Compound 1, 6-(2,4-Difluoro-phenoxy)-3-isopropoxy-1H-pyrazolo[3,4-d]pyrimidine]", "values": [{"measurement": "IC50", "setting": "p38 MAP kinase", "value": "~165", "unit": "nM"}, {"measurement": "melting point", "value": "143.7 to 145", "unit": "°C"}]}
